Reference: article PMC10331595 (Redox Biology, 2023)
Where two headings read alike, the source gives them in different places.

Tested on: NK-LAAO (native Naja kaouthia L-amino acid oxidase)
Format: biochemical
Details: 100 mM Tris-HCl pH 8.5, 25 °C

## N[C@@H](Cc1c[nH]c2ccccc12)C(=O)O [L-Trp]
0.03125-1 mM substrate, 2 min
  Km: 471 ± 25.9 µM

## CC(C)C[C@H](N)C(=O)O [L-Leu]
0.0625-4 mM substrate, 4 min
  Km: 637 ± 34.5 µM

## N[C@@H](CCC(=O)O)C(=O)O [L-Glu]
0.625-20 mM substrate, 240 min
  Km: 3560 ± 353 µM

## N=C(N)NCCC[C@H](N)C(=O)O [L-Arg]
0.125-4 mM substrate, 2 min
  Km: 3100 ± 448 µM

## CSCC[C@H](N)C(=O)O [L-Met]
0.03125-4 mM substrate, 2 min
  Km: 587 ± 9.5 µM
